US20200055891A1, “NOVEL PHOSPHOTRIAZOLE MRNA 5'-END CAP ANALOGS, COMPOSITION COMPRISING THE SAME, RNA MOLECULE INCORPORATING THE SAME, USES THEREOF AND METHOD OF SYNTHESIZING RNA MOLECULE, PROTEIN OR PEPTIDE” (UNIWERSYTET WARSZAWSKI, priority 2016, published 2020)
Read-outs that look alike come from different tables or passages of the source.

Experiments:
[1] = tested on: Rabbit Reticulocyte Lysate; experiment: Translation efficiency of capped firefly luciferase mRNA in Rabbit Reticulocyte Lysate System; type: biochemical; details: relative, m^7GpppG = 1
Description: The reaction was quenched by addition of 2 μl of 0.5 M EDTA pH 8.0 and purified with NucleoSpin RNA Clean-up XS kit (Macherey-Nagel) to afford luciferase-coding RNA strands capped with appropriate cap analogue.
For each capped luciferase-coding RNA four diluted solutions were prepared—3.0 ng/μl, 1.5 ng/μl, 0.75 ng/μl, 0.375 ng/μl. Translation studies were performed using Rabbit Reticulocyte Lysate System (Promega). 9 μl of a mixture containing Rabbit Reticulocyte Lysate (4 μl), Amino Acid Mixture Minus Leucine (0.05 μl of 1 mM solution), Amino Acid Mixture Minus Methionine (0.05 μl of 1 mM solution), potassium acetate (1.9 μl of 1 M solution), MgCl2 (0.4 μl of 25 mM solution) and 2.1 μl of water was incubated at 30° C. for 1 h after which 1 μl of appropriate luciferase-coding RNA solution was added and incubation of the reaction was continued at 37° C. for another hour. The reaction was stopped by freezing in liquid nitrogen.
Translation efficiency was determined using Luciferase Reporter System (Promega). The samples were defrosted just before the experiment. To every sample 50 μl of Luciferase Assay Reagent was added just before measurement of luminescence on Synergy H1 Microplate Reader (Bio Tek). The measurement were performed for every four samples independently due to low stability of luminescence signal. The results are presented on. FIG. 4 as proportions between regression coefficients of linear relationships between capped luciferase-coding RNA concentration in translation reaction (300 pg/μl, 150 pg/μl, 75 pg/μl, 37.5 pg/μl) and corresponding luminescence signal.

eIF4E [2] = molecular target: T1, eIF4E (Mus musculus, UniProt P63073); details: reference cap analogues, values from refs 42/43; cited from earlier work
SP6 RNA polymerase = molecular target: T2, SP6 RNA polymerase (Enterobacteria phage SP6, UniProt P06221); experiment: Capping efficiency: incorporation of cap analogues at the 5′ end of short transcripts by in vitro transcription; type: biochemical; details: 1.25 mM cap analogue, 0.125 mM GTP
T2 construct: purchased New England BioLabs
T2 sequence (P06221 1-874): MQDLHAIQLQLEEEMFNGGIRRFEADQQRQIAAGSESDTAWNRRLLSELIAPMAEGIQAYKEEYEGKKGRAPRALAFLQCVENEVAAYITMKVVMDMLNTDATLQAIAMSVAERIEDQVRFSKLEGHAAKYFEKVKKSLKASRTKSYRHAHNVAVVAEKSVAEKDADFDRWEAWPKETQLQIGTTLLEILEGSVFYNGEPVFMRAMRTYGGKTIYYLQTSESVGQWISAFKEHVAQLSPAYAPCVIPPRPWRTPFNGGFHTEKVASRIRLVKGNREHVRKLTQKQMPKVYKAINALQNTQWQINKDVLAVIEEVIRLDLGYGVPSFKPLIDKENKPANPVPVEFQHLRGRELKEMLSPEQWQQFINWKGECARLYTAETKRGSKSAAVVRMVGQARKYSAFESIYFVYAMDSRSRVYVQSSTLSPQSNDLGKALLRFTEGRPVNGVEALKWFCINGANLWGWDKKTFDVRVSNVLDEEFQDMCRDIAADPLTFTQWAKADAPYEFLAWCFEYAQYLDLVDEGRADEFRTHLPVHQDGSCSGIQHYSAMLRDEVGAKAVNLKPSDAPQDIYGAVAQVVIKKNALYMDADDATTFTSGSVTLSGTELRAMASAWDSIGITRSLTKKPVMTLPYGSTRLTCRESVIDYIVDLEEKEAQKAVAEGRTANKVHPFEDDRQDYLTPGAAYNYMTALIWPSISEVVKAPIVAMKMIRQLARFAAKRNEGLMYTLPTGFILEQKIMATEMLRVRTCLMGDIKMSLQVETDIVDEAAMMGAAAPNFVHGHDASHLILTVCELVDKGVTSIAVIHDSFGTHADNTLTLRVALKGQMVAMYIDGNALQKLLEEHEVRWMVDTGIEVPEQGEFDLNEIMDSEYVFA
Description: Prior to in vitro transcription annealing of a template was performed. DNA1 (SEQ ID NO: 1) and DNA2 (SEQ ID NO: 2) (20 μM each) were incubated in the presence of 4 mM Tris-HCl pH 8.0, 15 mM NaCl and 0.1 mM EDTA at 95° C. for 2 min and then at room temperature for 30 min. After 10-fold dilution the mixture was directly used for in vitro transcription.
The reaction was quenched by addition of 2 μl of 0.5 M EDTA pH 8.0 and purified with RNA Clean&Concentrator-5 kit (Zymo Research) to afford capped RNA1 (SEQ ID NO: 4) strands.
To reduce heterogeneity, each capped RNA1 (11.42 ng/μl, ca. 1 μM) was incubated in presence of 50 mM Tris-HCl pH 8.0, 50 mM MgCl2, RiboLock RNase Inhibitor (ThermoFisher Scientific) (2.0 U/μl) and DNA3 (SEQ ID NO: 3) (1 μM) at 37° C. for 1 h to afford RNA2 (SEQ ID NO: 5).^44 The reaction was stopped by freezing in liquid nitrogen and directly analyzed by PAGE (FIG. 3).
Relative bands intensity was determined using CLIQS v1.0 program.

eIF4E [3] = molecular target: T1, eIF4E; experiment: Association constants (KAS) of cap analogue-eIF4E complexes, fluorescence quenching titration; type: binding; details: 20° C., 50 mM Hepes/KOH pH 7.20, 100 mM KCl; weighted average of triplicate
Description: Association constants for cap analogue-eIF4E complexes were determined using fluorescence quenching titration method as described previously.^42 Measurements were performed using a quartz cuvette with optical path length of 4 mm for absorption and 10 mm for emission on LS-50B spectrofluorometer Perkin-Elmer Co. (Waltham, Mass., USA). Titration experiments were carried out at 20° C. in 50 mM Hepes/KOH buffer, pH 7.20 containing 100 mM KCl, 0.5 mM EDTA, and 1 mM DTT. During the experiment 1 μl aliquots of ligand solution was added to the 1400 μl of 0.1 μM protein solution. Protein fluorescence was monitored at 337 or 345 nm (excitation 280 or 295 nm, respectively). For data analysis fluorescence intensity correction was applied for sample dilution and inner filter effect. Association constants were determined by fitting theoretical dependence of fluorescence intensity on total ligand concentration. Each experiment was performed in triplicate, the association constants were calculated as weighted averages.

[4] = Hydrolysis in D2O seen in NMR spectra; type: physicochemical; details: dissolved in D2O just before NMR measurement; given if higher than 5%
Description: Some cap analogues hydrolyzed in D2O gradually. Although pure compounds (see HPLC profiles, Supporting Information 2) were dissolved in D2O just before measurements, the spectra indicated some level of hydrolysis. % of hydrolysis is provided along with compound characterization data, if higher than 5%.

T1 sequence (P63073 28-217 limits assumed): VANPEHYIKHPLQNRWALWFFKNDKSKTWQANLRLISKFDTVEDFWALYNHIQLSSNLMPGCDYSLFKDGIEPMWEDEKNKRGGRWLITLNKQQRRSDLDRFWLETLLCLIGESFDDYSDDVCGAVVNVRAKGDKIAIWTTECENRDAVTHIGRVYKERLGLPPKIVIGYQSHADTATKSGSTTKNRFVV

CO[C@H]1[C@@H](O)[C@H]([n+]2cn(C)c3c(=O)[nH]c(N)nc32)O[C@@H]1COP(=O)([O-])OP(=O)(O)OP(=O)(O)OC[C@H]1O[C@@H](n2cnc3c(=O)[nH]c(N)nc32)[C@H](O)[C@@H]1O [m2^7,3′-OGpppG, reference compound]
Translation efficiency [1]: 1.526 ± 0.043 | KAS (eIF4E [2]): 10.2 ± 0.6^43 μM^−1 | Capping efficiency (SP6 RNA polymerase): 83%

Cn1c[n+]([C@@H]2O[C@H](COP(=O)(O)OP(=O)([O-])O)[C@@H](O)[C@H]2O)c2nc(N)[nH]c(=O)c21 [m^7GDP]
KAS (eIF4E [2]): 20.4 ± 1.5^42 μM^−1

C[n+]1cn([C@@H]2O[C@H](COP(=O)(O)NCCn3cc(P(=O)([O-])OP(=O)(O)OP(=O)(O)OC[C@H]4O[C@@H](n5cnc6c(=O)[nH]c(N)nc65)C(O)C4O)nn3)C(O)C2O)c2nc(N)[nH]c(=O)c21 (stereo partly shown) [m^7GpNHC2H4tpppG, m^7GpNHC2H4-triazole-pppG]
Translation efficiency [1]: 0.103 ± 0.027 | KAS (eIF4E [3]): 3.10 ± 0.18 µM⁻¹ | hydrolysis in D2O [4]: 9% | Capping efficiency (SP6 RNA polymerase): 57%

C[n+]1cn([C@@H]2O[C@H](COP(=O)([O-])OP(=O)(O)NCCn3cc(CCP(=O)(O)OP(=O)(O)OC[C@H]4O[C@@H](n5cnc6c(=O)[nH]c(N)nc65)[C@@H](O)C4O)nn3)C(O)[C@@H]2O)c2nc(N)[nH]c(=O)c21 (stereo partly shown) [m^7GppNHC2H4tC2H4ppG, m^7GppNHC2H4-triazole-C2H4ppG]
Translation efficiency [1]: 0.239 ± 0.028 | hydrolysis in D2O [4]: 11% | Capping efficiency (SP6 RNA polymerase): 30%

C[n+]1cn([C@@H]2O[C@H](COP(=O)(O)OP(=O)([O-])OP(=O)(O)Cc3cn(CCNP(=O)(O)OC[C@H]4O[C@@H](n5cnc6c(=O)[nH]c(N)nc65)C(O)C4O)nn3)C(O)C2O)c2nc(N)[nH]c(=O)c21 (stereo partly shown) [m^7GpppCH2tC2H4NHpG, m^7GpppCH2-triazole-C2H4NHpG]
Translation efficiency [1]: 0.94 ± 0.11 | KAS (eIF4E [3]): 18.21 ± 0.72 µM⁻¹ | hydrolysis in D2O [4]: 9% | Capping efficiency (SP6 RNA polymerase): 44%

Cn1c[n+]([C@@H]2O[C@H](COP(=O)(O)OP(=O)([O-])OP(=O)(O)OC[C@H]3O[C@@H](n4cnc5c(=O)[nH]c(N)nc54)[C@H](O)[C@@H]3O)[C@@H](O)[C@H]2O)c2nc(N)[nH]c(=O)c21 [m^7GpppG, reference compound]
Translation efficiency [1]: 1 | KAS (eIF4E [2]): 12.5 ± 0.3^43 μM^−1 | Capping efficiency (SP6 RNA polymerase): 90%

C[n+]1cn([C@@H]2O[C@H](COP(=O)(O)OP(=O)(O)OP(=O)([O-])c3cn(CCNP(=O)(O)OC[C@H]4O[C@@H](n5cnc6c(=O)[nH]c(N)nc65)C(O)C4O)nn3)C(O)C2O)c2nc(N)[nH]c(=O)c21 (stereo partly shown) [m^7GppptC2H4NHpG, m^7Gppp-triazole-C2H4NHpG]
Translation efficiency [1]: 0.89 ± 0.11 | KAS (eIF4E [3]): 21.94 ± 0.69 µM⁻¹ | hydrolysis in D2O [4]: 13% | Capping efficiency (SP6 RNA polymerase): 52%

m2^7,2′-OGppp-triazole-C2H4NHpG [m2^7,2′-OGppptC2H4NHpG]
Translation efficiency [1]: 1.462 ± 0.182 | hydrolysis in D2O [4]: 8% | Capping efficiency (SP6 RNA polymerase): 41%
